In ChEMBL document CHEMBL5257023, “Identification of leads for antiproliferative activity on MDA-MB-435 human breast cancer cells through pharmacophore and CYP1A1-mediated metabolism” (Eur J Med Chem, 2016):
pIC50: −log10 of the molar value.

Key:
[1] = tested on: NCI-H226; test: Anticancer activity against human NCI-H226 cells assessed as cell growth at 0.1 uM incubated for 48 hrs by SRB assay; format: functional; details: read-out: Activity
[2] = tested on: MDA-MB-468; test: Anticancer activity against human MDA-MB-468 cells assessed as cell growth at 0.1 uM incubated for 48 hrs by SRB assay; format: functional; details: read-out: Activity
[3] = tested on: MCF7; test: Anticancer activity against human MCF7 cells assessed as inhibition of cell growth incubated for 48 hrs by SRB assay; format: functional; details: for CC50: read-out: LC50 (the source's name)
[4] = tested on: MDA-MB-435; test: Anticancer activity against human MDA-MB-435 cells assessed as cell growth at 100 uM incubated for 48 hrs by SRB assay; format: functional; details: read-out: Activity
[5] = tested on: NCI-H226; test: Anticancer activity against human NCI-H226 cells assessed as cell growth at 1 uM incubated for 48 hrs by SRB assay; format: functional; details: read-out: Activity
[6] = tested on: MDA-MB-468; test: Anticancer activity against human MDA-MB-468 cells assessed as inhibition of cell growth incubated for 48 hrs by SRB assay; format: functional; details: for CC50: read-out: LC50 (the source's name)
[7] = molecular target: T1, CYP1A1 (Homo sapiens, UniProt P04798); test: Inhibition of recombinant CYP1A1 (unknown origin) assessed as residual enzyme activity using 7-ethoxyresorufin as substrate at 1 uM incubated for 15 mins by resorufin dye based spectrofluorimetry (reference value: 100%); format: ADME; details: recombinant CYP1A1, probe 7-ethoxyresorufin, read-out: Activity
T1 sequence (P04798 whole entry): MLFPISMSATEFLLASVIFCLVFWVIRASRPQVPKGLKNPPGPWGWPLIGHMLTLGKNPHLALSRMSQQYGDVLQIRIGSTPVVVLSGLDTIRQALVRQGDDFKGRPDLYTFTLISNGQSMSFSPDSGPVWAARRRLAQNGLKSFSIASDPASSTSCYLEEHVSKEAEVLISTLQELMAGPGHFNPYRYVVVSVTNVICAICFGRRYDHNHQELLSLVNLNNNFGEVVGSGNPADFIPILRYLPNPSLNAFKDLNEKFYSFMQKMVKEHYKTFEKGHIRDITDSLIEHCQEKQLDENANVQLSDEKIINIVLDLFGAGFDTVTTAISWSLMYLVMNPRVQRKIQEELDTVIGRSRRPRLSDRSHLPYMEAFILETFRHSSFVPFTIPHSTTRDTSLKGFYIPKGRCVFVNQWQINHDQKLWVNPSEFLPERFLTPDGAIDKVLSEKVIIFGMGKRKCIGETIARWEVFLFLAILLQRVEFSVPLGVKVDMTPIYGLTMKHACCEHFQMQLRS

[8] = tested on: MCF7; test: Anticancer activity against human MCF7 cells assessed as cell growth at 1 uM incubated for 48 hrs by SRB assay; format: functional; details: read-out: Activity
[9] = tested on: MDA-MB-468; test: Anticancer activity against human MDA-MB-468 cells assessed as cell growth at 100 uM incubated for 48 hrs by SRB assay; format: functional; details: read-out: Activity
[10] = molecular target: T1, CYP1A1; test: Inhibition of recombinant CYP1A1 (unknown origin) assessed as residual enzyme activity using 7-ethoxyresorufin as substrate at 0.1 uM incubated for 15 mins by resorufin dye based spectrofluorimetry (reference value: 100%); format: ADME; details: recombinant CYP1A1, probe 7-ethoxyresorufin, read-out: Activity
[11] = tested on: MDA-MB-435; test: Anticancer activity against human MDA-MB-435 cells assessed as inhibition of cell growth incubated for 48 hrs by SRB assay; format: functional
[12] = tested on: NCI-H226; test: Anticancer activity against human NCI-H226 cells assessed as inhibition of cell growth incubated for 48 hrs by SRB assay; format: functional
[13] = tested on: NCI-H226; test: Anticancer activity against human NCI-H226 cells assessed as cell growth at 100 uM incubated for 48 hrs by SRB assay; format: functional; details: read-out: Activity
[14] = tested on: MCF7; test: Anticancer activity against human MCF7 cells assessed as cell growth at 0.1 uM incubated for 48 hrs by SRB assay; format: functional; details: read-out: Activity
[15] = tested on: MDA-MB-435; test: Anticancer activity against human MDA-MB-435 cells assessed as cell growth at 0.1 uM incubated for 48 hrs by SRB assay; format: functional; details: read-out: Activity
[16] = tested on: NCI-H226; test: Anticancer activity against human NCI-H226 cells assessed as cell growth at 10 uM incubated for 48 hrs by SRB assay; format: functional; details: read-out: Activity
[17] = molecular target: T1, CYP1A1; test: Inhibition of recombinant CYP1A1 (unknown origin) assessed as residual enzyme activity using 7-ethoxyresorufin as substrate at 100 uM incubated for 15 mins by resorufin dye based spectrofluorimetry (reference value: 100%); format: ADME; details: recombinant CYP1A1, probe 7-ethoxyresorufin, read-out: Activity
[18] = molecular target: T1, CYP1A1; test: Inhibition of recombinant CYP1A1 (unknown origin) assessed as residual enzyme activity using 7-ethoxyresorufin as substrate at 0.01 uM incubated for 15 mins by resorufin dye based spectrofluorimetry (reference value: 100%); format: ADME; details: recombinant CYP1A1, probe 7-ethoxyresorufin, read-out: Activity
[19] = molecular target: T1, CYP1A1; test: Inhibition of recombinant CYP1A1 (unknown origin) assessed as residual enzyme activity using 7-ethoxyresorufin as substrate at 50 uM incubated for 15 mins by resorufin dye based spectrofluorimetry (reference value: 100%); format: ADME; details: recombinant CYP1A1, probe 7-ethoxyresorufin, read-out: Activity
[20] = molecular target: T2, Cytochrome P450 1A1 (Homo sapiens, UniProt P04798); test: Inhibition of recombinant CYP1A1 (unknown origin) assessed as decrease in EROD activity using 7-ethoxyresorufin as substrate incubated for 15 mins by resorufin dye based spectrofluorimetry; format: ADME
T2 sequence (P04798 whole entry): T1 sequence (P04798 whole entry)

[21] = molecular target: T1, CYP1A1; test: Inhibition of recombinant CYP1A1 (unknown origin) assessed as residual enzyme activity using 7-ethoxyresorufin as substrate at 10 uM incubated for 15 mins by resorufin dye based spectrofluorimetry (reference value: 100%); format: ADME; details: recombinant CYP1A1, probe 7-ethoxyresorufin, read-out: Activity
[22] = tested on: MCF7; test: Anticancer activity against human MCF7 cells assessed as cell growth at 100 uM incubated for 48 hrs by SRB assay; format: functional; details: read-out: Activity
[23] = tested on: MDA-MB-435; test: Anticancer activity against human MDA-MB-435 cells assessed as cell growth at 1 uM incubated for 48 hrs by SRB assay; format: functional; details: read-out: Activity
[24] = tested on: MDA-MB-435; test: Anticancer activity against human MDA-MB-435 cells assessed as cell growth at 10 uM incubated for 48 hrs by SRB assay; format: functional; details: read-out: Activity
[25] = tested on: MDA-MB-468; test: Anticancer activity against human MDA-MB-468 cells assessed as cell growth at 10 uM incubated for 48 hrs by SRB assay; format: functional; details: read-out: Activity
[26] = tested on: MCF7; test: Anticancer activity against human MCF7 cells assessed as cell growth at 10 uM incubated for 48 hrs by SRB assay; format: functional; details: read-out: Activity
[27] = tested on: MDA-MB-468; test: Anticancer activity against human MDA-MB-468 cells assessed as cell growth at 1 uM incubated for 48 hrs by SRB assay; format: functional; details: read-out: Activity
[28] = molecular target: T2, Cytochrome P450 1A1; test: Inhibition of recombinant CYP1A1 (unknown origin) assessed as decrease in EROD activity using 7-ethoxyresorufin as substrate upto 100 uM incubated for 15 mins by resorufin dye based spectrofluorimetry; format: ADME; details: recombinant enzyme, 0.25 h

Compound | growth at 0.1 µM [1] | growth at 0.1 µM [2] | GI50 [3] | TGI [3] | CC50 [3] | growth at 100 µM [4] | growth at 1 µM [5] | GI50 [6] | TGI [6] | CC50 [6] | activity at 0.25 h, 1 µM [7] | growth at 1 µM [8] | growth at 100 µM [9] | activity at 0.25 h, 0.1 µM [10] | GI50 [11] | LC50 [11] | TGI [11] | GI50 [12] | LC50 (concentration killing 50% of cells) [12] | TGI [12] | further results
Cc1ccc(-c2cc3cc(F)ccc3[nH]2)cc1N | 100% | 100% | > 100 µM | > 100 µM | > 100 µM | 23.1% | 100% | > 100 µM | > 100 µM | > 100 µM | 35.3% | 73.1% | 96.8% | 52.6% | < 0.1 µM | > 100 µM | > 100 µM | > 100 µM | > 100 µM | > 100 µM | growth at 100 µM [13]: 90%; growth at 0.1 µM [14]: 100%; growth at 0.1 µM [15]: 47.8%; growth at 10 µM [16]: 98.9%; activity at 0.25 h, 100 µM [17]: 8.54%; activity at 0.25 h, 0.01 µM [18]: 96.8%; activity at 0.25 h, 50 µM [19]: 10.6%; pIC50 [20]: 6.89; activity at 0.25 h, 10 µM [21]: 12.8%; growth at 100 µM [22]: 67.1%; growth at 1 µM [23]: 40%; growth at 10 µM [24]: 30.6%; growth at 10 µM [25]: 99.8%; growth at 10 µM [26]: 70.9%; growth at 1 µM [27]: 100%
C[C@H](Oc1ccc(Cl)cc1)C(=O)Nc1sc2c(c1C(N)=O)CCCC2 | 80.9% | 100% | 56.3 µM | > 100 µM | > 100 µM | 86.9% | 72.9% | > 100 µM | > 100 µM | > 100 µM | 97.2% | 76.3% | 65.5% | 97.7% | > 100 µM | > 100 µM | > 100 µM | > 100 µM | > 100 µM | > 100 µM | inhibition (INH) [28]: Not Active; growth at 100 µM [13]: 61.9%; growth at 0.1 µM [14]: 81.5%; growth at 0.1 µM [15]: 100%; growth at 10 µM [16]: 68.1%; activity at 0.25 h, 100 µM [17]: 102%; activity at 0.25 h, 0.01 µM [18]: 100%; activity at 0.25 h, 50 µM [19]: 97.4%; activity at 0.25 h, 10 µM [21]: 98.2%; growth at 100 µM [22]: 27.2%; growth at 1 µM [23]: 100%; growth at 10 µM [24]: 100%; growth at 10 µM [25]: 78.7%; growth at 10 µM [26]: 71.7%; growth at 1 µM [27]: 100%
Cc1nn(C[C@@H](O)COc2ccc3c(C)cc(=O)oc3c2)c(C)c1C | 88.9% | 100% | 52.5 µM | > 100 µM | > 100 µM | 77.9% | 77.5% | 76.6 µM | > 100 µM | > 100 µM | 96.7% | 74.2% | 33.7% | 98.4% | > 100 µM | > 100 µM | > 100 µM | 96.5 µM | > 100 µM | > 100 µM | inhibition (INH) [28]: Not Active; growth at 100 µM [13]: 49.1%; growth at 0.1 µM [14]: 80.4%; growth at 0.1 µM [15]: 100%; growth at 10 µM [16]: 72.8%; activity at 0.25 h, 100 µM [17]: 103%; activity at 0.25 h, 0.01 µM [18]: 99.3%; activity at 0.25 h, 50 µM [19]: 101%; activity at 0.25 h, 10 µM [21]: 96.7%; growth at 100 µM [22]: 25.3%; growth at 1 µM [23]: 100%; growth at 10 µM [24]: 100%; growth at 10 µM [25]: 94.8%; growth at 10 µM [26]: 69.2%; growth at 1 µM [27]: 98%
